The text below walks through data of ChEMBL document CHEMBL3046194, “Synthesis and antitumor activity of novel 4-aminoquinoline derivatives” (Med Chem Res, 2013).

The source made the active and inactive calls. The calls are words filed in the database; no cut-off is given here.

In experiment [1] the test system is HCT-116. Description: Decrease in VEGF protein expression in Homo sapiens (human) HCT116 cells at 2.5 to 10 uM after 48 hr by westerrn blot analysis. The format is functional, cell-based.
Experiment [2] concerns HCT-116. Description: Antitumor activity against Homo sapiens (human) HCT116 cells assessed as inhibition of cell viability after 72 hr by MTT assay. The format is functional, cell-based. Conditions: HCT-116, 72 h. (In general: Tetrazolium assays rely on reduction of a dye to a coloured formazan, in cell work by metabolically active cells.)
In another experiment the test system is A549. Description: Antitumor activity against Homo sapiens (human) A549 cells assessed as inhibition of cell viability after 72 hr by MTT assay. It counts as functional, cell-based. Conditions: A549, 72 h.
The subject of the next experiment is DU-145. Description: Antitumor activity against Homo sapiens (human) DU145 cells assessed as inhibition of cell viability after 72 hr by MTT assay. The format is functional, cell-based. Conditions: DU-145, 72 h.
Another experiment concerns HEK293. Description: Cytotoxicity against Homo sapiens (human) HEK293 cells assessed as inhibition of cell viability after 72 hr by MTT assay. As to conditions: HEK293, 72 h. It counts as cell-based.
The next experiment concerns HepG2. Description: Antitumor activity against Homo sapiens (human) HepG2 cells assessed as inhibition of cell viability after 72 hr by MTT assay. Conditions: HepG2, 72 h. The format is functional, cell-based.
Experiment [3] is described as follows: Antitumor activity against Homo sapiens (human) LN229 cells assessed as inhibition of cell viability after 72 hr by MTT assay. It counts as functional, cell-based. Conditions: LN-229, 72 h.

For the molecule `CCCNc1cc(-c2ccccc2)nc2cc(OC)cc(OC)c12`, the inhibition entry with HCT-116 [1] was “Active”. In addition, the IC50 was found to be 0.97 µM in the experiment with HCT-116 [2]; 13.1 µM with A549; 9.77 µM in the experiment on DU-145; 2 µM in the experiment with HEK293; 5.21 µM with HepG2; 1.82 µM in experiment [3].
Consider `COc1cc(OC)c2c(N3CCOCC3)cc(-c3ccccc3)nc2c1`, for which the 50% inhibitory concentration (IC50) in the experiment on HCT-116 [2] is 28.1 µM; with A549, more than 100 µM; in the experiment with DU-145, more than 100 µM; with HEK293 it was more than 100 µM; with HepG2 it was more than 100 µM; in experiment [3] it was more than 100 µM.
Take `COc1cc(OC)c2c(N3CCCCC3)cc(-c3ccccc3)nc2c1`: the 50% inhibitory concentration (IC50) is 32 µM with HCT-116 [2]; more than 100 µM in the experiment on A549; more than 100 µM in the experiment on DU-145; 68.2 µM in the experiment with HEK293; more than 100 µM in the experiment with HepG2; 66 µM in experiment [3].
As for `COc1cc(OC)c2c(N3CCN(C)CC3)cc(-c3ccccc3)nc2c1`, the IC50 in the experiment on HCT-116 [2] was 7.43 µM; in the experiment with A549, more than 100 µM; with DU-145, 16.4 µM; in the experiment on HEK293, 3.66 µM; in the experiment with HepG2, 22.6 µM; in experiment [3] it was 1.75 µM.
Take `COc1cc(OC)c2c(Nc3ccccc3)cc(-c3ccccc3)nc2c1`: the half-maximal inhibitory concentration (IC50) in the experiment with HCT-116 [2] is 4.28 µM; with A549 it was more than 100 µM; in the experiment on DU-145, 22.2 µM; in the experiment with HEK293, 13.2 µM; in the experiment on HepG2, 36.4 µM; in experiment [3] it was 5.9 µM.
For the molecule `COc1cc(OC)c2c(-n3ccnc3)cc(-c3ccccc3)nc2c1`, the IC50 with HCT-116 [2] was 42.4 µM; with A549 it was more than 100 µM; in the experiment with DU-145, more than 100 µM; in the experiment with HepG2, 58.6 µM; in experiment [3] it was 55.3 µM.
Take `COc1cc(OC)c2c(NCc3ccccc3)cc(-c3ccccc3)nc2c1`: the IC50 with HCT-116 [2] came to 12 µM; with A549, 12.8 µM; in the experiment with DU-145, 10.1 µM; in the experiment on HepG2, 10.9 µM; in experiment [3], 7.15 µM.
As for `O=c1[nH]cc(F)c(=O)[nH]1` [FLUOROURACIL], the IC50 in the experiment on HCT-116 [2] was 1.93 µM; in the experiment on A549 it was more than 100 µM; in the experiment on DU-145, 2.95 µM; in the experiment on HepG2, 19.2 µM.
`CCCCNc1cc(-c2ccccc2)nc2cc(OC)cc(OC)c12`: the IC50 stood at 3.05 µM in the experiment with HCT-116 [2]; 19.6 µM in the experiment on A549; 4.63 µM in the experiment on DU-145; 3.23 µM in the experiment with HEK293; 4.46 µM in the experiment with HepG2; 3.92 µM in experiment [3].
Take `COc1cc(OC)c2c(NC3CCCCC3)cc(-c3ccccc3)nc2c1`: the IC50 in the experiment on HCT-116 [2] is 3.82 µM; in the experiment on A549, 6.59 µM; in the experiment with DU-145, 5.47 µM; in the experiment on HepG2, 3.16 µM; in experiment [3], 6.08 µM.

As usually defined, the IC50 is the concentration that inhibits the measured activity by half.
